The results in this text go back to paper PMC11637378, “Optogenetic screening of MCT1 activity implicates a cluster of non-steroidal anti-inflammatory drugs (NSAIDs) as inhibitors of lactate transport” (PLOS ONE, 2024).

SMILES strings stand for the structures. Values joined by “and” are separate entries in the source; they are usually repeats but may differ in a detail not shown here. Equal values may be shown once. Where a name gives a salt, the structure may show the parent alone.

This data set has as its system parent strain (SAWy518).
Consider `CCCc1c(-c2ccc(O)cc2)nn(-c2ccc(O)cc2)c1-c1ccc(O)cc1`, for which the OffScreen_percentage is on record as 98.9963 percentage, the Offscreen_18hr was found to be 0.7989, the Offscreen_24hr worked out at 0.9026 and the Offscreen_42hr came to 0.9515.

For `CC(C)Cn1c(=O)n(C)c(=O)c2[nH]cnc21` [3-Isobutyl-1-methylxanthine, reference compound], the Offtarget entry is “NO” and the Offtarget_sub worked out at 0.4308.

As for `O=C(/C=C/c1ccccc1)c1ccc(O)cc1` [4'-HYDROXYCHALCONE], the Offscreen_18hr came to 0.7341, the Offscreen_24hr is 0.8731 and the Offscreen_42hr is listed as 0.9266.

As for `O=C(/C=C/c1ccc(O)cc1)c1ccccc1` [4-hydroxychalcone, reference compound], the OffScreen_percentage is reported as 103.693 percentage, the Offscreen_18hr came to 0.8368, the Offscreen_24hr stood at 0.9201 and the Offscreen_42hr worked out at 0.9804. The Read_percentage came out at 103.693 percentage.

Turning to `CC[n+]1c(/C=C/C=C2/N(C)c3ccccc3C2(C)C)sc2ccccc21.[I-]` [AC-93253 iodide], the Offscreen_18hr was determined as 0.3559, the Offscreen_24hr is 0.5533 and the Offscreen_42hr is given as 0.821.

Consider `C[n+]1c2cc(N)ccc2cc2ccc(N)cc21.[Cl-]` [ACRIFLAVINIUM HYDROCHLORIDE], for which the Offscreen_18hr came to 0.6168, the Offscreen_24hr was found to be 0.8008 and the Offscreen_42hr stood at 0.904.

`Nc1c2ccccc2nc2ccccc12` [AMINACRINE]: the Offscreen_18hr is on record as 0.3466, the Offscreen_24hr is reported as 0.4931 and the Offscreen_42hr is 0.7904.

For the compound `Br.Br.N=C(N)SCCN` [AMINOETHYLISOTHIOUREA DIHYDROBROMIDE], the Offscreen_18hr is on record as 0.0502, the Offscreen_24hr was found to be 0.0525 and the Offscreen_42hr turned out to be 0.1802.

As to `C[C@@H]1CC[C@H]2[C@@H](C)C(=O)O[C@@H]3O[C@@]4(C)CC[C@@H]1[C@]32OO4` [ARTEMISININ], the Offscreen_18hr was 0.4969, the Offscreen_24hr came to 0.7016 and the Offscreen_42hr is 0.8396.

As to `O=C1NC(=O)/C(=C/c2ccc(-c3ccc(F)cc3O)o2)S1` [AS-252424], the Offscreen_18hr worked out at 0.6896, the Offscreen_24hr amounted to 0.8289 and the Offscreen_42hr turned out to be 0.8951.

Regarding `CCCCc1oc2ccccc2c1C(=O)c1cc(I)c(OCCN(CC)CC)c(I)c1` [Amiodarone hydrochloride], the Offscreen_18hr amounted to 0.3754, the Offscreen_24hr was determined as 0.6492 and the Offscreen_42hr came out at 0.9258.

Turning to `N.S=C(S)N1CCCC1` [Ammonium pyrrolidinedithiocarbamate], the Offscreen_18hr is reported as 0.6686, the Offscreen_24hr is 0.8623 and the Offscreen_42hr turned out to be 0.942.

With `CO[C@H]1O[C@@H]2O[C@@]3(C)CC[C@H]4[C@H](C)CC[C@@H]([C@H]1C)[C@@]24OO3` [Artemether], the Offscreen_18hr was determined as 0.3535, the Offscreen_24hr was 0.4688 and the Offscreen_42hr came to 0.7035.

In the case of `Cc1ccc(S(=O)(=O)/C=C/C#N)cc1` [BAY 11-7082 (BAY 11-7821)], the Offscreen_18hr is given as 0.151, the Offscreen_24hr was found to be 0.3413 and the Offscreen_42hr worked out at 0.9249.

Turning to `CCCCCCCCCCCCC[N+](C)(C)Cc1ccccc1.[Cl-]` [BENZALKONIUM CHLORIDE], the Offscreen_18hr came to 0.0504, the Offscreen_24hr was 0.056 and the Offscreen_42hr is 0.5903.

Consider `CCc1oc2ccccc2c1C(=O)c1cc(Br)c(O)c(Br)c1` [BENZBROMARONE], for which the Offscreen_18hr amounted to 0.5194, the Offscreen_24hr was 0.7137 and the Offscreen_42hr is recorded as 0.8516.

In the case of `COc1ccc(-c2coc3cc(OC(C)=O)cc(OC(C)=O)c3c2=O)cc1` [BIOCHANIN A DIACETATE], the Offscreen_18hr came out at 0.8079, the Offscreen_24hr was found to be 0.8835 and the Offscreen_42hr is 0.9447.

Regarding `Cc1ccc(S(=O)(=O)/C=C/C#N)cc1` [Bay 11-7082], the Offscreen_18hr was 0.1157, the Offscreen_24hr amounted to 0.2743 and the Offscreen_42hr stood at 0.896.

On to `CC(C)(C)c1ccc(S(=O)(=O)/C=C/C#N)cc1` [Bay 11-7085], for which the Offscreen_18hr was 0.0422 and 0.0395; the Offscreen_24hr was 0.0424 and 0.04.

Regarding `Cc1c(N)nc([C@H](CC(N)=O)NC[C@@H](N)C(N)=O)nc1C(=O)N[C@H](C(=O)N[C@@H](C)[C@H](O)[C@@H](C)C(=O)N[C@@H](C(=O)NCCc1nc(-c2nc(C(=O)NCCC[S+](C)C)cs2)cs1)[C@@H](C)O)C(O[C@H]1O[C@H](CO)[C@H](O)[C@@H](O)[C@H]1O[C@H]1O[C@H](CO)[C@@H](O)[C@H](OC(N)=O)[C@@H]1O)c1c[nH]cn1.O=S(=O)([O-])O` (stereo partly drawn) [Bleomycin sulfate], the Offscreen_18hr stood at 0.261, the Offscreen_24hr is recorded as 0.4579 and the Offscreen_42hr came to 0.8554.

With `CC(C(=O)O)c1ccc2c(c1)[nH]c1ccc(Cl)cc12` (stereo not drawn) [CARPROFEN], the Offscreen_18hr is reported as 0.7281, the Offscreen_24hr was found to be 0.8523 and the Offscreen_42hr is recorded as 0.8964.

Turning to `O=C1C(Cl)=C(Cl)C(=O)C(Cl)=C1Cl` [CHLORANIL], the Offscreen_18hr is 0.1832, the Offscreen_24hr stood at 0.4077 and the Offscreen_42hr is recorded as 0.9247.

Turning to `N#Cc1c(Cl)c(Cl)c(Cl)c(C#N)c1Cl` [CHLOROTHALONIL], the Offscreen_18hr was 0.6512, the Offscreen_24hr is given as 0.8372 and the Offscreen_42hr is 0.9297.

Regarding `Clc1ccccc1C(c1ccccc1)(c1ccccc1)n1ccnc1` [CLOTRIMAZOLE], the Offscreen_18hr came out at 0.0789, the Offscreen_24hr is reported as 0.1029 and the Offscreen_42hr is recorded as 0.8087.

Regarding `Oc1c(Cl)cc(Cl)c2cccnc12` [Capitrol], the Offscreen_18hr worked out at 0.0472, the Offscreen_24hr is 0.0467 and the Offscreen_42hr stood at 0.0526.

`[H]/N=C(\N/C(=N/[H])NCCCCCCNC(=N)NC(=N)Nc1ccc(Cl)cc1)Nc1ccc(Cl)cc1` [Chlorhexidine hydrochloride]: the Offscreen_18hr is 0.5517, the Offscreen_24hr was found to be 0.7908 and the Offscreen_42hr is given as 0.9568.

With `CCN(CC)CCOc1ccc(C(=C(Cl)c2ccccc2)c2ccccc2)cc1` [Clomifene citrate], the Offscreen_18hr is reported as 0.6687, the Offscreen_24hr is 0.875 and the Offscreen_42hr was 0.9713.

Turning to `N#Cc1ccc(Oc2ccc3c(c2)COB3O)cc1` [Crisaborole], the Offscreen_18hr is given as 0.594, the Offscreen_24hr was determined as 0.7965 and the Offscreen_42hr is 0.9431.

`Oc1ccc(Cl)cc1Cc1cc(Cl)ccc1O` [DICHLOROPHEN]: the Offscreen_18hr is listed as 0.5869, the Offscreen_24hr amounted to 0.7921 and the Offscreen_42hr was 0.8823.

As for `C=CC(C1=CC(=O)C(OC)=CC1=O)c1ccc(O)cc1` (stereo not drawn) [Dalbergione,4-methoxy-4-hydroxy-], the OffScreen_percentage turned out to be 102.367 percentage, the Offscreen_18hr is recorded as 0.8261, the Offscreen_24hr amounted to 0.9183 and the Offscreen_42hr came to 0.9703. The Read_percentage is 102.367 percentage.

As for `CCN(CC)C(=S)SSC(=S)N(CC)CC` [Disulfiram], the Offscreen_18hr stood at 0.0526, the Offscreen_24hr amounted to 0.0614 and the Offscreen_42hr amounted to 0.7775.

As to `COc1cccc2c1C(=O)c1c(O)c3c(c(O)c1C2=O)C[C@@](O)(C(=O)CO)C[C@H]3O[C@H]1C[C@H](N)[C@H](O)[C@H](C)O1.Cl` [Doxorubicin (Adriamycin)], the Offscreen_18hr came to 0.4346, the Offscreen_24hr was found to be 0.6005 and the Offscreen_42hr is recorded as 0.8771.

As for `O=c1c2ccccc2[se]n1-c1ccccc1` [EBSELEN], the Offscreen_18hr came out at 0.0405, the Offscreen_24hr worked out at 0.0408 and the Offscreen_42hr is given as 0.0412.

Regarding `C=CCOC(Cn1ccnc1)c1ccc(Cl)cc1Cl.O=S(=O)(O)O` (stereo not drawn) [ENILCONAZOLE SULFATE], the Offscreen_18hr worked out at 0.81, the Offscreen_24hr was 0.8908 and the Offscreen_42hr is 0.9485.

Consider `O=C([O-])c1ccccc1-c1c2cc(I)c(=O)c(I)c-2oc2c(I)c([O-])c(I)cc12.[Na+].[Na+]` [ERYTHROSINE SODIUM], for which the Offscreen_18hr is listed as 0.8136, the Offscreen_24hr is 0.8985 and the Offscreen_42hr came out at 0.9466.

With `O=C(O)Cc1ccc(-c2ccccc2)cc1` [FELBINAC], the Offscreen_18hr was found to be 0.6742, the Offscreen_24hr worked out at 0.7657 and the Offscreen_42hr was found to be 0.7971.

With `OC(Cn1cncn1)(Cn1cncn1)c1ccc(F)cc1F` [FLUCONAZOLE], the Offscreen_18hr is 0.7681, the Offscreen_24hr is 0.8873 and the Offscreen_42hr amounted to 0.9468.

`Nc1[nH]c(=O)ncc1F` [FLUCYTOSINE]: the Offscreen_18hr turned out to be 0.7196, the Offscreen_24hr is on record as 0.8771 and the Offscreen_42hr is on record as 0.9452.

`CCCCCCCCc1ccc(CCC(N)(CO)CO)cc1.Cl` [Fingolimod (FTY720)]: the Offscreen_18hr was 0.0535, the Offscreen_24hr worked out at 0.0624 and the Offscreen_42hr came out at 0.7799.

For the compound `COc1ncc(-c2ccc3nccc(-c4ccnnc4)c3c2)cc1NS(=O)(=O)c1ccc(F)cc1F` [GSK2126458 (GSK458)], the Offscreen_18hr is recorded as 0.433, the Offscreen_24hr turned out to be 0.6688 and the Offscreen_42hr was 0.9364.

For `CCCCCCc1ccc(O)cc1O` [HEXYLRESORCINOL], the Offscreen_18hr turned out to be 0.6446, the Offscreen_24hr stood at 0.822 and the Offscreen_42hr came to 0.8874.

For `O=C(Nc1cc(C(F)(F)F)cc(C(F)(F)F)c1)c1cc(Cl)ccc1O` [IMD 0354], the Offscreen_18hr amounted to 0.1675, the Offscreen_24hr came out at 0.2933 and the Offscreen_42hr is reported as 0.8452.
